Legend:
UO-31 = test: NCI human cancer cell line growth inhibition: UO-31 (Renal); format: cell-based
RXF-393 = test: NCI human cancer cell line growth inhibition: RXF-393 (Renal); format: cell-based
NCI-H460 = format: cell-based, human; conditions: NCI-H460, NSC Lung
UACC-62 = test: NCI human cancer cell line growth inhibition: UACC-62 (Melanoma); format: cell-based
U251 = test: NCI human cancer cell line growth inhibition: U251 (CNS); format: cell-based
SN12C = test: NCI human cancer cell line growth inhibition: SN12C (Renal); format: cell-based
SK-MEL-2 = test: NCI human cancer cell line growth inhibition: SK-MEL-2 (Melanoma); format: cell-based
MALME-3M = test: NCI human cancer cell line growth inhibition: MALME-3M (Melanoma); format: cell-based
NCI/ADR-RES = format: cell-based, human; conditions: Breast
HOP-92 = test: NCI human cancer cell line growth inhibition: HOP-92 (NSC Lung); format: cell-based
OVCAR-5 = test: NCI human cancer cell line growth inhibition: OVCAR-5 (Ovarian); format: cell-based
HT29 = test: NCI human cancer cell line growth inhibition: HT29 (Colon); format: cell-based
KM12 = test: NCI human cancer cell line growth inhibition: KM12 (Colon); format: cell-based
A549/ATCC = test: NCI human cancer cell line growth inhibition: A549/ATCC (NSC Lung); format: cell-based
SR = test: NCI human cancer cell line growth inhibition: SR (Leukemia); format: cell-based
HCC-2998 = test: NCI human cancer cell line growth inhibition: HCC-2998 (Colon); format: cell-based
SNB-75 = test: NCI human cancer cell line growth inhibition: SNB-75 (CNS); format: cell-based
OVCAR-3 = test: NCI human cancer cell line growth inhibition: OVCAR-3 (Ovarian); format: cell-based
T-47D = test: NCI human cancer cell line growth inhibition: T-47D (Breast); format: cell-based
SW-620 = test: NCI human cancer cell line growth inhibition: SW-620 (Colon); format: cell-based
SK-MEL-28 = test: NCI human cancer cell line growth inhibition: SK-MEL-28 (Melanoma); format: cell-based
MDA-MB-435 = test: NCI human cancer cell line growth inhibition: MDA-MB-435 (Breast); format: cell-based
MCF7 = test: NCI human cancer cell line growth inhibition: MCF7 (Breast); format: cell-based
CCRF-CEM = test: NCI human cancer cell line growth inhibition: CCRF-CEM (Leukemia); format: cell-based
DU-145 = test: NCI human cancer cell line growth inhibition: DU-145 (Prostate); format: cell-based
NCI-H226 = format: cell-based, human; conditions: NCI-H226, NSC Lung
CAKI-1 = test: NCI human cancer cell line growth inhibition: CAKI-1 (Renal); format: cell-based
HS 578T = test: NCI human cancer cell line growth inhibition: HS 578T (Breast); format: cell-based
BT-549 = test: NCI human cancer cell line growth inhibition: BT-549 (Breast); format: cell-based
HCT-116 = test: NCI human cancer cell line growth inhibition: HCT-116 (Colon); format: cell-based
MI4 = test: NCI human cancer cell line growth inhibition: MI4 (Melanoma); format: cell-based
COLO 205 = test: NCI human cancer cell line growth inhibition: COLO 205 (Colon); format: cell-based
UACC-257 = test: NCI human cancer cell line growth inhibition: UACC-257 (Melanoma); format: cell-based
SF-295 = test: NCI human cancer cell line growth inhibition: SF-295 (CNS); format: cell-based
IGROVI = test: NCI human cancer cell line growth inhibition: IGROVI (Ovarian); format: cell-based
ACHN = test: NCI human cancer cell line growth inhibition: ACHN (Renal); format: cell-based
SF-539 = test: NCI human cancer cell line growth inhibition: SF-539 (CNS); format: cell-based
HCT-15 = test: NCI human cancer cell line growth inhibition: HCT-15 (Colon); format: cell-based
SNB-19 = test: NCI human cancer cell line growth inhibition: SNB-19 (CNS); format: cell-based
RPMI-8226 = test: NCI human cancer cell line growth inhibition: RPMI-8226 (Leukemia); format: cell-based
MDA-MB-231/ATCC = test: NCI human cancer cell line growth inhibition: MDA-MB-231/ATCC (Breast); format: cell-based
SK-OV-3 = test: NCI human cancer cell line growth inhibition: SK-OV-3 (Ovarian); format: cell-based
TK-10 = test: NCI human cancer cell line growth inhibition: TK-10 (Renal); format: cell-based
LOX IMVI = test: NCI human cancer cell line growth inhibition: LOX IMVI (Melanoma); format: cell-based
OVCAR-8 = test: NCI human cancer cell line growth inhibition: OVCAR-8 (Ovarian); format: cell-based
OVCAR-4 = test: NCI human cancer cell line growth inhibition: OVCAR-4 (Ovarian); format: cell-based
NCI-H522 = format: cell-based, human; conditions: NCI-H522, NSC Lung
MOLT-4 = test: NCI human cancer cell line growth inhibition: MOLT-4 (Leukemia); format: cell-based
HOP-62 = test: NCI human cancer cell line growth inhibition: HOP-62 (NSC Lung); format: cell-based
PC-3 = test: NCI human cancer cell line growth inhibition: PC-3 (Prostate); format: cell-based
786-0 = test: NCI human cancer cell line growth inhibition: 786-0 (Renal); format: cell-based
EKVX = test: NCI human cancer cell line growth inhibition: EKVX (NSC Lung); format: cell-based
A498 = test: NCI human cancer cell line growth inhibition: A498 (Renal); format: cell-based
HL-60(TB) = test: cells; format: cell-based, human
SF-268 = test: NCI human cancer cell line growth inhibition: SF-268 (CNS); format: cell-based
MDA-N = test: NCI human cancer cell line growth inhibition: MDA-N (Breast); format: cell-based
SK-MEL-5 = test: NCI human cancer cell line growth inhibition: SK-MEL-5 (Melanoma); format: cell-based
NCI-H23 = format: cell-based, human; conditions: NCI-H23, NSC Lung
K-562 = test: NCI human cancer cell line growth inhibition: K-562 (Leukemia); format: cell-based

CCC/C=C/C=C/C(=O)O[C@H]1/C(=C/C(=O)OC)C[C@H]2C[C@H]([C@@H](C)O)OC(=O)C[C@H](O)C[C@@H]3C[C@H](OC(C)=O)C(C)(C)[C@](O)(C[C@@H]4C/C(=C/C(=O)OC)C[C@H](/C=C/C(C)(C)[C@]1(O)O2)O4)O3 [Bryo-1, Bryostatin-1, reference compound]
Growth inhibition (GI50) (UO-31): −5.60 log of molar concentration | Growth inhibition (GI50) (RXF-393): −5.30 log of molar concentration | Growth inhibition (GI50) (NCI-H460): −5.60 log of molar concentration | Growth inhibition (GI50) (UACC-62): −5.30 log of molar concentration | Growth inhibition (GI50) (U251): −5.10 log of molar concentration | Growth inhibition (GI50) (SN12C): −5.10 log of molar concentration | Growth inhibition (GI50) (SK-MEL-2): −5.20 log of molar concentration | Growth inhibition (GI50) (MALME-3M): −5.20 log of molar concentration | Growth inhibition (GI50) (NCI/ADR-RES): >−5 log of molar concentration | Growth inhibition (GI50) (HOP-92): −5.30 log of molar concentration | Growth inhibition (GI50) (OVCAR-5): >−5 log of molar concentration | Growth inhibition (GI50) (HT29): −5.30 log of molar concentration | Growth inhibition (GI50) (KM12): −5.20 log of molar concentration | Growth inhibition (GI50) (A549/ATCC): −5.20 log of molar concentration | Growth inhibition (GI50) (SR): >−5 log of molar concentration | Growth inhibition (GI50) (HCC-2998): −5.30 log of molar concentration | Growth inhibition (GI50) (SNB-75): −5.50 log of molar concentration | Growth inhibition (GI50) (OVCAR-3): −5.10 log of molar concentration | Growth inhibition (GI50) (T-47D): −5.20 log of molar concentration | Growth inhibition (GI50) (SW-620): −5.50 log of molar concentration | Growth inhibition (GI50) (SK-MEL-28): −5.10 log of molar concentration | Growth inhibition (GI50) (MDA-MB-435): −5.10 log of molar concentration | Growth inhibition (GI50) (MCF7): −5.20 log of molar concentration | Growth inhibition (GI50) (CCRF-CEM): −5.30 log of molar concentration | Growth inhibition (GI50) (DU-145): >−5 log of molar concentration | Growth inhibition (GI50) (NCI-H226): >−5 log of molar concentration | Growth inhibition (GI50) (CAKI-1): −5.40 log of molar concentration | Growth inhibition (GI50) (HS 578T): −5.2 log of molar concentration | Growth inhibition (GI50) (BT-549): −5.10 log of molar concentration | Growth inhibition (GI50) (HCT-116): −5.30 log of molar concentration | Growth inhibition (GI50) (MI4): >−5 log of molar concentration | Growth inhibition (GI50) (COLO 205): −5.40 log of molar concentration | Growth inhibition (GI50) (UACC-257): −5.10 log of molar concentration | Growth inhibition (GI50) (SF-295): −5.20 log of molar concentration | Growth inhibition (GI50) (IGROVI): −5.30 log of molar concentration | Growth inhibition (GI50) (ACHN): −5.50 log of molar concentration | Growth inhibition (GI50) (SF-539): >−5 log of molar concentration | Growth inhibition (GI50) (HCT-15): >−5 log of molar concentration | Growth inhibition (GI50) (SNB-19): >−5 log of molar concentration | Growth inhibition (GI50) (RPMI-8226): >−5 log of molar concentration | Growth inhibition (GI50) (MDA-MB-231/ATCC): −5.20 log of molar concentration | Growth inhibition (GI50) (SK-OV-3): −5.10 log of molar concentration | Growth inhibition (GI50) (TK-10): >−5 log of molar concentration | Growth inhibition (GI50) (LOX IMVI): −5.10 log of molar concentration | Growth inhibition (GI50) (OVCAR-8): −5.10 log of molar concentration | Growth inhibition (GI50) (OVCAR-4): −5.50 log of molar concentration | Growth inhibition (GI50) (NCI-H522): >−5 log of molar concentration | Growth inhibition (GI50) (MOLT-4): −5.50 log of molar concentration | Growth inhibition (GI50) (HOP-62): >−5 log of molar concentration | Growth inhibition (GI50) (PC-3): −5.30 log of molar concentration | Growth inhibition (GI50) (786-0): −5.20 log of molar concentration | Growth inhibition (GI50) (EKVX): −5.30 log of molar concentration | Growth inhibition (GI50) (A498): >−5 log of molar concentration | Growth inhibition (GI50) (HL-60(TB)): −5.70 log of molar concentration | Growth inhibition (GI50) (SF-268): −5.10 log of molar concentration | Growth inhibition (GI50) (MDA-N): −5.10 log of molar concentration | Growth inhibition (GI50) (SK-MEL-5): −5.70 log of molar concentration | Growth inhibition (GI50) (NCI-H23): >−5 log of molar concentration | Growth inhibition (GI50) (K-562): −5.40 log of molar concentration

— patent publication US8735609B2, “Bryostatin analogues, synthetic methods and uses” (The Board of Trustees of the Leland Stanford Junior …, priority 2007, dated 2014)
